pIC50: −log10 of the molar value.
Legend:
human CB1 receptor = human CB1 receptor (Homo sapiens (Human), UniProt P21554); test: CB1 receptor antagonism, agonist-induced cAMP modulation (HTRF) in transfected CHO cells; format: cell-based; conditions: read-out: Antag IC50
Procedure: Receptor antagonism: Evaluation of the antagonist activity of compounds at the human CB1 receptor expressed in transfected CHO cells, determined by measuring their effects on agonist-induced cAMP modulation using the HTRF detection method.
Thereafter, the reference agonist CP 55940 and the adenylyl cyclase activator NKH 477 are added at respective final concentrations of 3 nM and 3 µM.
For basal control measurements, CP 55940 is omitted from the wells containing 3 µM AM 281.
Following 20 min incubation at 37° C., the cells are lysed and the fluorescence acceptor (D2-labeled cAMP) and fluorescence donor (anti-cAMP antibody labeled with europium cryptate) are added.
After 60 min at room temperature, the fluorescence transfer is measured at λex=337 nm and λem=620 and 665 nm using a microplate reader (Rubystar, BMG). The cAMP concentration is determined by dividing the signal measured at 665 nm by that measured at 620 nm (ratio).
The standard reference antagonist is AM 281, which is tested in each experiment at several concentrations to generate a concentration-response curve from which its IC50 value is calculated.

[1] = target: human adenosine A2A receptor (Homo sapiens (Human), UniProt P29274); test: Adenosine receptor inhibition binding assay, [3H]ZM241385, HEK293 A2A receptor membranes; conditions: 1 nM [3H]ZM241385, HEK293-hA2A membranes, 25° C., 1 h; Ki from IC50 by Cheng-Prusoff
In short: (§1)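 Membranes from BacMam-transduced HEK293 cells (0.2 µg A2A; 1.4 µg A1) incubated 1 h at 25 °C with 1 nM radioligand; A2A in 50 mM Tris-HCl pH 7.4, A1 buffer adds 100 mM NaCl, 10 mM MgCl2. Nonspecific binding: 1 µM CGS 15943 (A2A) or 1 µM DPCPX (A1). Filtration, scintillation counting; IC50 converted to Ki via Cheng-Prusoff.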

[2] = target: human adenosine A1 receptor (Homo sapiens (Human), UniProt P30542); test: Adenosine receptor inhibition binding assay, [3H]DPCPX, A1 receptor membranes; conditions: 1 nM [3H]DPCPX, 25° C., 1 h; Ki from IC50 by Cheng-Prusoff
In short: as §1

Sequence of human CB1 receptor (P21554 whole entry): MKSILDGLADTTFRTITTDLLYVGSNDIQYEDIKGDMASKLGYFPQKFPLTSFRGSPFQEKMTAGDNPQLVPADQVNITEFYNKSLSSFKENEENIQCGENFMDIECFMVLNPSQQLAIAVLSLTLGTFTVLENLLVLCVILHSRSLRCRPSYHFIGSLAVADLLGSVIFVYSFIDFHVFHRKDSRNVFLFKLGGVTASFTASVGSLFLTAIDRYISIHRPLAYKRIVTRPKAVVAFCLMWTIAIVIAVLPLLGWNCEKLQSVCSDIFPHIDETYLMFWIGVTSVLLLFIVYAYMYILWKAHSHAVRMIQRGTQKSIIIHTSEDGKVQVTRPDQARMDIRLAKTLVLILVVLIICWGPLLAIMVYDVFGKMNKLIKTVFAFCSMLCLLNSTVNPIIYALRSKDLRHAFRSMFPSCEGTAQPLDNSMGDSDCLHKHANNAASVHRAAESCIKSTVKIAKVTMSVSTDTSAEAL
Sequence of human adenosine A2A receptor (P29274 whole entry): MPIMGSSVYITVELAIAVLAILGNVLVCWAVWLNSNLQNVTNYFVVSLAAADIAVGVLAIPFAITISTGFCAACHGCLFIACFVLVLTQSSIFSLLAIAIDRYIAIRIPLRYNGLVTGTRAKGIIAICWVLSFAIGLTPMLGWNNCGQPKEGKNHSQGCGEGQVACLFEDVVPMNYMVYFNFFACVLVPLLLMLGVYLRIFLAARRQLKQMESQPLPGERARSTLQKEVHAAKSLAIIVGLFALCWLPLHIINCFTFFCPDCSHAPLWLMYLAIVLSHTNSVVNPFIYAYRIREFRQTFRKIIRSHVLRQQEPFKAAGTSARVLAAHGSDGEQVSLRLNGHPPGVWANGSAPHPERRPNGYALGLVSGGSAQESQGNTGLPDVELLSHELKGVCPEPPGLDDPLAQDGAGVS
Sequence of human adenosine A1 receptor (P30542 whole entry): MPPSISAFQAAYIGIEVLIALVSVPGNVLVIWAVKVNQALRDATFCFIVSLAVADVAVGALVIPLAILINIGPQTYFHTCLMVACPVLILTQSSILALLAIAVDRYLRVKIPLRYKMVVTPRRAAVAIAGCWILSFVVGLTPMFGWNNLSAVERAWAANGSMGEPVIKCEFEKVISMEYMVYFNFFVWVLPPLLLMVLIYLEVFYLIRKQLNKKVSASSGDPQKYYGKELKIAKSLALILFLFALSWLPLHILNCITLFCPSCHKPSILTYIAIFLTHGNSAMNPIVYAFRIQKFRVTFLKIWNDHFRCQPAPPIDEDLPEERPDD

Row | pIC50 (human CB1 receptor) | A2A pKi [1] | A1 pKi [2] | SMILES
1 | < 4.00 | 8.6 | 6.7 | Cc1cc(-c2c(-c3ccc(F)cc3)nc(N)n3c(=O)n(Cc4ccn(C)n4)nc23)cc(CO)n1 [Example 1-52, 5-amino-7-(4-fluorophenyl)-8-[2-(hydroxymethyl)-6-methyl-4-pyridyl]-2-[(1-methylpyrazol-3-yl)methyl]-[1,2,4]triazolo[4,3-c]pyrimidin-3-one]
2 | < 4.00 | 10.0 | 8.0 | Cn1ccnc1Cn1nc2c(-c3cc(CO)nc(C(F)(F)F)c3)c(-c3ccccc3)nc(N)n2c1=O [Example 1-67, 5-amino-8-[2-(hydroxymethyl)-6-(trifluoromethyl)-4-pyridyl]-2-[(1-methylimidazol-2-yl)methyl]-7-phenyl-[1,2,4]triazolo[4,3-c]pyrimidin-3-one]
3 | < 4.00 | 8.0 | 7.3 | Cc1cc(-c2c(-c3ccccc3)nc(N)n3c(=O)n(Cc4nccn4C)nc23)cc(C)[n+]1[O-] [Example 1-36, 5-amino-8-(2,6-dimethyl-1-oxido-pyridin-1-ium-4-yl)-2-[(1-methylimidazol-2-yl)methyl]-7-phenyl-[1,2,4]triazolo[4,3-c]pyrimidin-3-one]
4 | < 4.00 | 9.2 | 6.5 | Cc1cc(-c2c(-c3ccc(F)cc3)nc(N)n3c(=O)n(Cc4nc(C)oc4C)nc23)cc(CO)n1 [Example 1-53, 5-amino-2-[(2,5-dimethyloxazol-4-yl)methyl]-7-(4-fluorophenyl)-8-[2-(hydroxymethyl)-6-methyl-4-pyridyl]-[1,2,4]triazolo[4,3-c]pyrimidin-3-one]
5 | < 4.00 | 9.1 | 6.5 | Cc1cc(-c2c(-c3ccccc3)nc(N)n3c(=O)n(C[C@@H]4CCCO4)nc23)cc(CO)n1 [Example 2-28, 5-amino-8-[2-(hydroxymethyl)-6-methyl-4-pyridyl]-7-phenyl-2-[[(2S)-tetrahydrofuran-2-yl]methyl]-[1,2,4]triazolo[4,3-c]pyrimidin-3-one]
6 | < 4.00 | 8.4 | 7.4 | Cc1nc(Cn2nc3c(-c4cc(C)[n+]([O-])c(C)c4)c(-c4ccc(F)cc4)nc(N)n3c2=O)c(C)o1 [Example 1-35, 5-amino-2-[(2,5-dimethyloxazol-4-yl)methyl]-8-(2,6-dimethyl-1-oxido-pyridin-1-ium-4-yl)-7-(4-fluorophenyl)-[1,2,4]triazolo[4,3-c]pyrimidin-3-one]
7 | < 4.00 | 9.5 | 7.1 | Cn1ccnc1Cn1nc2c(-c3cc(Cl)nc(CO)c3)c(-c3ccc(F)cc3)nc(N)n2c1=O [Example 1-58, 5-amino-8-[2-chloro-6-(hydroxymethyl)-4-pyridyl]-7-(4-fluorophenyl)-2-[(1-methylimidazol-2-yl)methyl]-[1,2,4]triazolo[4,3-c]pyrimidin-3-one]
8 | < 4.00 | 9.4 | 7.2 | Cc1cc(-c2c(-c3ccccc3)nc(N)n3c(=O)n(Cc4ccn(C)n4)nc23)cc(C)n1 [Example 1-16, 5-amino-8-(2,6-dimethyl-4-pyridyl)-2-[(1-methylpyrazol-3-yl)methyl]-7-phenyl-[1,2,4]triazolo[4,3-c]pyrimidin-3-one]
9 | < 4.00 | 9.3 | 6.4 | Cc1cc(-c2c(-c3ccccc3)nc(N)n3c(=O)n(C[C@H]4CCCO4)nc23)cc(CO)n1 [Example 2-29, 5-amino-8-[2-(hydroxymethyl)-6-methyl-4-pyridyl]-7-phenyl-2-[[(2R)-tetrahydrofuran-2-yl]methyl]-[1,2,4]triazolo[4,3-c]pyrimidin-3-one]
10 | < 4.00 | 9.5 | 7.8 | COc1cc(-c2c(-c3ccccc3)nc(N)n3c(=O)n(Cc4nccn4C)nc23)cc(C)n1 [Example 1-38, 5-amino-8-(2-methoxy-6-methyl-4-pyridyl)-2-[(1-methylimidazol-2-yl)methyl]-7-phenyl-[1,2,4]triazolo[4,3-c]pyrimidin-3-one]
11 | < 4.00 | 9.7 | 7.5 | Cc1ocnc1Cn1nc2c(-c3cc(CO)nc(C(F)(F)F)c3)c(-c3ccccc3)nc(N)n2c1=O [Example 1-66, 5-amino-8-[2-(hydroxymethyl)-6-(trifluoromethyl)-4-pyridyl]-2-[(5-methyloxazol-4-yl)methyl]-7-phenyl-[1,2,4]triazolo[4,3-c]pyrimidin-3-one]
12 | < 4.00 | 9.3 | 6.4 | Cc1cc(-c2c(-c3ccccc3)nc(N)n3c(=O)n(Cc4nonc4C)nc23)cc(CO)n1 [Example 1-46, 5-amino-8-[2-(hydroxymethyl)-6-methyl-4-pyridyl]-2-[(4-methyl-1,2,5-oxadiazol-3-yl)methyl]-7-phenyl-[1,2,4]triazolo[4,3-c]pyrimidin-3-one]
13 | < 4.00 | 7.2 | <5.4 | Cc1cc(-c2c(-c3ccccc3)nc(N)n3c(=O)n(CCc4nnnn4C)nc23)cc(C)n1 [Example 1-5, 5-amino-8-(2,6-dimethyl-4-pyridyl)-2-[2-(1-methyltetrazol-5-yl)ethyl]-7-phenyl-[1,2,4]triazolo[4,3-c]pyrimidin-3-one]
14 |  | 9.4 | 6.3 | Nc1nc(-c2ccc(F)cc2)c(-c2cc(Cl)nc(CO)c2)c2nn(C[C@H]3CCCO3)c(=O)n12 [Example 2-34, 5-amino-8-[2-chloro-6-(hydroxymethyl)-4-pyridyl]-7-(4-fluorophenyl)-2-[[(2R)-tetrahydrofuran-2-yl]methyl]-[1,2,4]triazolo[4,3-c]pyrimidin-3-one]
15 |  | 9.0 | 6.8 | Cc1cc(-c2c(-c3ccccc3)nc(N)n3c(=O)n(C[C@@H]4CCCN4C)nc23)cc(C)n1 [Example 2-8, 5-amino-8-(2,6-dimethyl-4-pyridyl)-2-[[(2S)-1-methylpyrrolidin-2-yl]methyl]-7-phenyl-[1,2,4]triazolo[4,3-c]pyrimidin-3-one]
16 |  | 8.4 | 6.1 | COCCN1CCC[C@H]1Cn1nc2c(-c3cc(C)nc(C)c3)c(-c3ccccc3)nc(N)n2c1=O [Example 2-9, 5-amino-8-(2,6-dimethyl-4-pyridyl)-2-[[(2S)-1-(2-methoxyethyl)pyrrolidin-2-yl]methyl]-7-phenyl-[1,2,4]triazolo[4,3-c]pyrimidin-3-one]
17 |  | 7.4 | 5.7 | Cc1cc(-c2c(-c3ccccc3)nc(N)n3c(=O)n(C4CCNC4)nc23)cc(C)n1 (centres unmarked) [Example 2-2, 5-amino-8-(2,6-dimethyl-4-pyridyl)-7-phenyl-2-pyrrolidin-3-yl-[1,2,4]triazolo[4,3-c]pyrimidin-3-one]
18 |  | 8.5 | 6.7 | Cc1cc(-c2c(-c3ccccc3)nc(N)n3c(=O)n(Cc4cocn4)nc23)cc(CO)n1 [Example 1-42, 5-amino-8-[2-(hydroxymethyl)-6-methyl-4-pyridyl]-2-(oxazol-4-ylmethyl)-7-phenyl-[1,2,4]triazolo[4,3-c]pyrimidin-3-one]
19 |  | 8.9 | 6.7 | Cc1cc(-c2c(-c3ccccc3)nc(N)n3c(=O)n(Cc4coc(C)n4)nc23)cc(C)n1 [Example 1-15, 5-amino-8-(2,6-dimethyl-4-pyridyl)-2-[(2-methyloxazol-4-yl)methyl]-7-phenyl-[1,2,4]triazolo[4,3-c]pyrimidin-3-one]
20 |  | 7.7 | 6.8 | Cc1cc(-c2c(-c3ccccc3)nc(N)n3c(=O)n(C4CCN(C(=O)OC(C)(C)C)C4)nc23)cc(C)n1 (centres unmarked) [Example 2-1, tert-butyl 3-[5-amino-8-(2,6-dimethyl-4-pyridyl)-3-oxo-7-phenyl-[1,2,4]triazolo[4,3-c]pyrimidin-2-yl]pyrrolidine-1-carboxylate]
21 |  | 10.0 | 7.1 | COc1cc(-c2c(-c3ccc(F)cc3)nc(N)n3c(=O)n(Cc4nccn4C)nc23)cc(CO)n1 [Example 1-65, 5-amino-7-(4-fluorophenyl)-8-[2-(hydroxymethyl)-6-methoxy-4-pyridyl]-2-[(1-methylimidazol-2-yl)methyl]-[1,2,4]triazolo[4,3-c]pyrimidin-3-one]
22 |  | 9.5 | 6.8 | Cc1cc(-c2c(-c3ccccc3)nc(N)n3c(=O)n(Cc4ncoc4C)nc23)cc(CO)n1 [Example 1-39, 5-amino-8-[2-(hydroxymethyl)-6-methyl-4-pyridyl]-2-[(5-methyloxazol-4-yl)methyl]-7-phenyl-[1,2,4]triazolo[4,3-c]pyrimidin-3-one]
23 |  | 8.7 | 6.6 | Cc1cc(-c2c(-c3ccccc3)nc(N)n3c(=O)n(Cc4noc(C)n4)nc23)cc(C)n1 [Example 1-20, 5-amino-8-(2,6-dimethyl-4-pyridyl)-2-[(5-methyl-1,2,4-oxadiazol-3-yl)methyl]-7-phenyl-[1,2,4]triazolo[4,3-c]pyrimidin-3-one]
